# Data as given in PubChem BioAssay AID1919013 (Molecular Pharmacology Branch, DTP, NCI, 2023).
# Tested on: LG0703-F498-PDC complex spheroid growth
# Assay: Anticancer human tumor LG0703-F498-PDC patient-derived lung adenocarcinoma cell line growth inhibition [AhR]
# Conditions: for IC50: curve of first compound; for viability, T/C: stronger effect = lower value
# Description: Multicellular complex tumor spheroid response to aryl hydrocarbon receptor antagonists in combination with a variety of drugs and investigational agents in selected tumor cell lines
# The current study was undertaken to assess response to aryl hydrocarbon receptor antagonists in combination with standard-of-care drugs and investigational agents in solid tumor complex spheroid models. Complex spheroids include a stromal component modeled by human endothelial cells (HUVEC) and fibroblasts modeled by human mesenchymal stem cells (MSCs). The concentration ranges selected for each drug and investigational agent were based upon clinically achievable concentrations if the clinical Cmax of the agent was known.
# Compounds. The drugs and investigational agents: BAY 2416964 (NSC825713), GNF351 (NSC835774), CH-223191 (NSC835775), CPI-455 (NSC825282), aza-TdCyd (NSC777586), decitabine (NSC127716), belinostat (NSC758774), entinostat (NSC756642), pevonedistat (NSC761192), tazemetostat (NSC777109), talazoparib (NSC765396), olaparib (NSC753686), selinexor (NSC780203), nedisertib (M3814, NSC802822), bortezomib (NSC756655), venetoclax (NSC766270), doxorubicin (NSC123127), elimusertib (BAY189344, NSC800525), ceralasertib (AZD6738, NSC777638), TAK-243 (NSC785004), alisertib (NSC759677), etoposide (NSC141540), topotecan (NSC609699), eribulin (NSC707389), gemcitabine (NSC613327), carboplatin (NSC241240), cisplatin (NSC119875), and SN-38 (NSC673596) were obtained from the National Cancer Institute (NCI) Developmental Therapeutics Program Chemical Repository (32). The FDA-approved anticancer drug set is available from the Developmental Therapeutics Program at https://dtp.cancer.gov/organization/dscb/obtaining/available plates.htm. […] The stock solutions were prepared in dimethyl sulfoxide (DMSO, Sigma-Aldrich, St. Louis, MO, cat. D2650), except for the platinum compounds which were prepared in saline (Quality Biological, Gaithersburg, MD, cat. 114-055-101), at 800-fold the tested concentration and stored at -70 degrees C prior to their use. All drugs and investigational agents were tested over a range starting from a high concentration at or near the clinical Cmax and decreasing in half-log increments. If the clinical Cmax for an agent had not been determined, the highest concentration tested was 10 microM (Table 1).
# Cell Culture. All cells were maintained in an incubator at 37 degrees C and 5% CO2 with 95% humidity. The PDC lines were cultured according to standard operating procedures established by the NCI PDMR (https://pdmr.cancer.gov). Briefly, all PDCs were thawed and cultured in Matrigel-coated flasks prepared with a working solution of 1X Ham's F-12 nutrient mix, without supplementation (Invitrogen, Waltham, MA, cat. 11765054), 100 U/mL penicillin-streptomycin (Invitrogen, cat. 15140122), and 2.5% Matrigel (Corning Inc., Corning, NY, cat. 354248) for the first three passages. All PDCs were cultured in complete DMEM/F-12 media containing advanced DMEM/F-12 (Invitrogen, cat. 12634028), 4.9% defined fetal bovine serum, heat inactivated (HyClone Laboratories Inc., Logan, UT, cat. SH30070.03HI), 389 ng/mL hydrocortisone (Sigma-Aldrich, cat. H4001), 9.7 ng/mL human EGF recombinant protein (Invitrogen, cat. PHG0313), 23.4 microg/mL adenine (Sigma-Aldrich, cat. A2786), 97.3 U/mL penicillin-streptomycin (Invitrogen, cat. 15140122), 1.9 mM L-glutamine (Invitrogen, cat. 25030081), and 9.7 microM Y-27632 dihydrochloride (Tocris Bioscience, Bristol, United Kingdom, cat. 1254). The PDCs were cultured in complete DMEM/F12 media without 10 microM Y-27632 dihydrochloride for at least two passages prior to the screen. The established cell lines NCI-H1341 and […] were cultured in DMEM/F-12, HEPES (Invitrogen, cat. 11330032), 5% defined fetal bovine serum (HyClone Laboratories Inc., cat. SH30070.03), ITS premix universal culture supplement [insulin (5 microg/mL), transferrin (5 microg/mL), and selenious acid (5 ng/mL)] […]
# [1] = second compound 0.1 µM, first compound 0.0316 µM
# [2] = second compound 0.1 µM, first compound 0.1 µM
# [3] = second compound 0.1 µM, first compound 0.316 µM
# [4] = second compound 0.1 µM, first compound 1 µM
# [5] = second compound 0.1 µM, first compound 3.16 µM
# [6] = second compound 0.1 µM, first compound 10 µM
# [7] = second compound 0.316 µM, first compound 0.0316 µM
# [8] = second compound 0.316 µM, first compound 0.1 µM
# [9] = second compound 0.316 µM, first compound 0.316 µM
# [10] = second compound 0.316 µM, first compound 1 µM
# [11] = second compound 0.316 µM, first compound 3.16 µM
# [12] = second compound 0.316 µM, first compound 10 µM
# [13] = second compound 1 µM, first compound 0.0316 µM
# [14] = second compound 1 µM, first compound 0.1 µM
# [15] = second compound 1 µM, first compound 0.316 µM
# [16] = second compound 1 µM, first compound 1 µM
# [17] = second compound 1 µM, first compound 3.16 µM
# [18] = second compound 1 µM, first compound 10 µM
# [19] = second compound 3.16 µM, first compound 0.0316 µM
# [20] = second compound 3.16 µM, first compound 0.1 µM
# [21] = second compound 3.16 µM, first compound 0.316 µM
# [22] = second compound 3.16 µM, first compound 1 µM
# [23] = second compound 3.16 µM, first compound 3.16 µM
# [24] = second compound 3.16 µM, first compound 10 µM
# [25] = second compound 10 µM, first compound 0.0316 µM
# [26] = second compound 10 µM, first compound 0.1 µM
# [27] = second compound 10 µM, first compound 0.316 µM
# [28] = second compound 10 µM, first compound 1 µM
# [29] = second compound 10 µM, first compound 3.16 µM
# [30] = second compound 10 µM, first compound 10 µM
# 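Note: luminescence taken as a proxy for viable cell amount.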
# 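Throughout, for viability, T/C: percent of DMSO vehicle control where 100% means growth equal to vehicle.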
Structure (SMILES),IC50 (second compound 0.1 µM) [µM],IC50 (second compound 0.316 µM) [µM],IC50 (second compound 1 µM) [µM],IC50 (second compound 3.16 µM) [µM],IC50 (second compound 10 µM) [µM],"viability, T/C [1] [%]","viability, T/C [2] [%]","viability, T/C [3] [%]","viability, T/C [4] [%]","viability, T/C [5] [%]","viability, T/C [6] [%]","viability, T/C [7] [%]","viability, T/C [8] [%]","viability, T/C [9] [%]","viability, T/C [10] [%]","viability, T/C [11] [%]","viability, T/C [12] [%]","viability, T/C [13] [%]","viability, T/C [14] [%]","viability, T/C [15] [%]",also measured
Nc1ccn(C2OC(CO)C(O)C2(F)F)c(=O)n1 (stereo not given) + CC(CO)NC(=O)c1cc(-c2ccc(Cl)cc2)nn(-c2cnn(C)c2)c1=O,< 0.0316,< 0.0316,< 0.0316,< 0.0316,< 0.0316,43.6,43.4,39.1,38.8,35.7,26.6,43.3,41.7,41.1,38.3,28.4,27.3,46.7,47.5,39.9,"viability, T/C [16]: 37.9%; viability, T/C [17]: 31%; viability, T/C [18]: 27.1%; viability, T/C [19]: 42.8%; viability, T/C [20]: 41.9%; viability, T/C [21]: 41.9%; viability, T/C [22]: 39.2%; viability, T/C [23]: 29.2%; viability, T/C [24]: 23.9%; viability, T/C [25]: 40%; viability, T/C [26]: 40.5%; viability, T/C [27]: 45%; viability, T/C [28]: 34.5%; viability, T/C [29]: 27.2%; viability, T/C [30]: 23.7%"
O=C(c1cc(Cc2n[nH]c(=O)c3ccccc23)ccc1F)N1CCN(C(=O)C2CC2)CC1 + CC(CO)NC(=O)c1cc(-c2ccc(Cl)cc2)nn(-c2cnn(C)c2)c1=O,> 10,> 10,> 10,> 10,> 10,95.2,99.8,94.8,86.6,95.3,70.4,96.2,98.4,87.5,82.4,88.8,83.1,93,108,95.7,"viability, T/C [16]: 74.4%; viability, T/C [17]: 86.1%; viability, T/C [18]: 81%; viability, T/C [19]: 89.3%; viability, T/C [20]: 91%; viability, T/C [21]: 94.5%; viability, T/C [22]: 74.1%; viability, T/C [23]: 79%; viability, T/C [24]: 72%; viability, T/C [25]: 77.4%; viability, T/C [26]: 78.6%; viability, T/C [27]: 82.7%; viability, T/C [28]: 80%; viability, T/C [29]: 81.8%; viability, T/C [30]: 79.8%"
